# Experimental data from patent publication US7074765B2, “Synthetic peptide analogs of Arg-Pro-Pro-Gly-Phe as selective inhibitors of thrombin and thrombin activation of protease activated receptors 1 and 4” (The Regents of the University of Michigan, priority 2003, dated 2006).
# Legend:
# PC-3 cells = test: Thrombin-induced motility of prostate cancer cells (Boyden chamber); type: cell-based; details: 100 μM; 2 nM α-thrombin
# Experimental: Motility assays are performed with a modified Boyden chamber (tissue culture-treated, 6.5 mm diameter, 10 μm thickness, 8 μm pores). In the motility assays, 2.5×10^4 cells are plated in the top chamber of non-coated polyethylene teraphthalate (PET) membranes (24-well insert, pore size […]; Becton Dickinson). […] RPMI 10% fetal bovine serum is used as a chemoattractant in the lower chamber. […] The cells that transverse the membranes are stained with Dip-Quick (Jorgensen Laboratories, Loveland, Colo.). Cells in five random fields of view at 200× are counted and expressed as the average number of cells/field of view. […]
# [1] = test system: normal human citrated plasma; test: prothrombin time (PT); type: biochemical; details: normal human plasma; p<0.05
# Experimental: (§1) The influence of the various peptide formulations used in the present invention on established coagulation-based assays was determined. The activated partial thromboplastin time (APTT) is performed by mixing 0.05 ml normal human citrated plasma with 0.05 ml activated partial thromboplastin reagent purchased from Organon Teknika, Research Triangle Park, N.C. in the absence or presence of a peptide inhibitor. After incubation for 5 min at 37° C., the mixture is recalcified with 0.05 ml of 30 mM calcium chloride and the time to clot formation is measured in an Amelung KC4A instrument (Sigma Chemical Corp, St. Louis, Mo.) (Hasan et al. Thrombosis and Haemostasis. 82, 1182–1187 (1999)). The prothrombin time (PT) is performed by mixing 0.05 ml normal human citrated plasma with 0.05 ml Simplastin (Organon Teknika, Research Triangle Park, N.C.) followed by incubation for 3 min at 37° C. in the absence or presence of a peptide inhibitor. At the addition of 0.05 ml of 30 mM calcium chloride, the time to clot formation is measured in an KC4A instrument (Sigma Chemical Corp, St. Louis, Mo.) (Hasan et al. Thrombosis and Haemostasis. 82, 1182–1187 (1999)). The thrombin clotting time (TCT) is performed by adding 0.1 ml normal human citrated plasma in the absence or presence of a peptide inhibitor and 0.05 ml of a α-thrombin solution such that the final concentration of the thrombin in the entire mixture was 1 nM. Upon addition of the thrombin, the time to clot formation is measured in an KC4A instrument (Sigma Chemical Corp, St. Louis, Mo.). In FIG. 5, peptide TH146 produces a significant prolongation (p<0.05) of the activated partial thromboplastin time at 15 μM, of the prothrombin time at 60 μM, and the thrombin clotting time at 15 μM. In FIG. 6, peptide MAP4-TH146 produced a significant prolongation (p<0.05) of the activated partial thromboplastin time at 0.195 μM, of the prothrombin time at 3.125 μM, and the thrombin clotting time at 0.39 μM.
# [2] = test system: normal human lung fibroblasts (NHLF); test: α-thrombin-induced calcium mobilization in fibroblasts; type: cell-based
# Experimental: The second assay developed to assess peptides from the combinatorial libraries uses inhibition of α-thrombin-induced calcium mobilization in fibroblasts. Normal human lung fibroblasts (NHLF) were purchased from Clonetics, San Diego, Calif., an affiliate of Bio-Wittaker, Walkersville, Md. The cytoplasmic free Ca^2+ concentration ([Ca^2+]i) was measured using the fluorescent Ca^2+ indicator fura-2 (Molecular Probes, Inc., Eugene, Oreg.). Suspension of fibroblasts in Hepes-Tyrode's buffer were loaded with fura-2 by incubation at 37° C. with 2 μM fura-2/acetoxymethyl ester for 45 minutes according to the method of Rasmussen et al., J. Biol. Chem. 268, 14322 (1993). The labeled fibroblasts were separated from excess probe by washing by centrifugation at 1000 rpm (180×g). Aliquots of the labeled fibroblasts were transferred into a quartz cuvette with a magnetic stirrer, which was then placed in a thermostatically controlled chamber at 37° C. in a fluorescence spectrophotometer (Perkin-Elmer LS50B spectrofluorometer, Chicago, Ill.). Reagents, test peptide, and α-thrombin (0.25–2 nM), were sequentially added directly to the cuvette. The excitation wavelengths varied between 340 and 380 nm. Fluorescence was measured by recording emitted light at 510 nm as reported by Fisher et al., Mol Pharm. 35, 195 (1989). The minimum emission was determined on a solubilized fibroblast sample in the presence of 10 mM EDTA; maximum emission was determined on the same sample with 10 mM Ca^2+ added. The intrafibroblast free Ca^2+ concentration was calculated by the method of Grykiewicz et al., J. Biol. Chem. 260, 3440 (1985). […] The KD for fura-2 was assumed to be 224 nM. Rmax and Rmin are the maximum and minimum fluorescence ratios measured at the end of the experiment, respectively; Sf2 and Sb2 are the fluorescence values at 380 nm in the absence and presence of saturating [Ca^2+], respectively. The reaction was monitored for 3–5 minutes.
# [3] = test system: normal human citrated plasma; test: thrombin clotting time (TCT); type: biochemical; details: normal human plasma; p<0.05
# Experimental: as §1
# [4] = molecular target: T1, α-thrombin cleavage of recombinant extracellular fragment of human PAR1 (rPAR1EC) (Homo sapiens, UniProt P00734); test: Inhibition of α-thrombin-induced cleavage of rPAR1EC; type: biochemical; details: 1 nM α-thrombin, 15 min, 37° C.
# T1 construct: A portion of the extracellular domain of human PAR1 (Ala^26-Ser^99) (rPAR1EC) was expressed in Escherichia coli; with 1 nM of α-thrombin or 0.5 μg/mL thrombocytin (16.7 nM); His10-DDDDK (pET19b) (N); made in house; host or cells: E. coli BL21(DE3), pET19b (rPAR1EC)
# Experimental: Thrombocytin is a snake venom enzyme that activates platelets by cleaving PAR1 at the thrombin cleavage site (Santos et al., FEBS Letters. 18, 3570–3577 (2000)). […] The ability of MAP4-rOicPGF to block thrombocytin cleavage of rPAR1EC was performed as follows. One μg of rPAR1EC in 0.01 mM Tris-HCL, 0.2 M NaCl, pH 8.0 was incubated at 37° C. for 15 min or 45 min with 1 nM of α-thrombin or 0.5 μg/mL thrombocytin (16.7 nM), respectively, in the absence or presence of 0.025 to 1 mM MAP4-rOicPGF. The reaction mixture was separated on SDS-PAGE and stained with Coomassie Brilliant Blue. The cleaved gel images were scanned using the software Scion Image, ScionCorp, Frederick, Md.
# [5] = test system: normal human citrated plasma; test: activated partial thromboplastin time (APTT); type: biochemical; details: normal human plasma; p<0.05
# Experimental: as §1
substance,measurement,setting,value
β-Ala-Lys-2Lys-4(D-Arg-Oic-Pro-Gly-Phe) [MAP4-rOicPGF],effect on thrombin-induced PC-3 cell motility,PC-3 cells,block
same,concentration giving significant prolongation of the PT,[1],3.125 µM
same,concentrations that blocked α-thrombin-induced Ca^2+ mobilization in fibroblasts,[2]; 0.25 nM α-thrombin,≥ 3.1 µM
same,inhibition of calcium mobilization,"[2]; 0.2 mM peptide, 2 nM alpha thrombin",98%
same,effect on alpha thrombin-induced calcium mobilization,"[2]; 0.0016 (unit not given) peptide, 2 nM alpha thrombin",full recovery
same,concentration giving significant prolongation of the TCT,[3],0.39 µM
same,effect on α-thrombin cleavage of rPAR1EC,[4],inhibits thrombin and thrombocytin cleavage of rPAR1EC
same,concentration giving significant prolongation of the APTT,[5],0.195 µM
